Assay results as given in PubChem BioAssay (NCI).
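Method: 48-hour compound exposure of cells in 96-well plates, five concentrations, linear interpolation of endpoints. Abbreviation: GI50, concentration required for 50% inhibition of growth. The concentration for full growth arrest is given as TGI.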

What was measured:
Assay in all cases: growth of human tumour cells (NCI), 48 h
COLO 205 colon = system: COLO 205 colon
A498 renal = system: A498 renal
KM20L2 colon = system: KM20L2 colon
SK-OV-3 ovarian = system: SK-OV-3 ovarian
NCI-H226 lung = system: NCI-H226 lung
786-0 renal = system: 786-0 renal
HCT-116 colon = system: HCT-116 colon
M14 melanoma = system: M14 melanoma
HCC-2998 colon = system: HCC-2998 colon
MALME-3M melanoma = system: MALME-3M melanoma
SF-268 CNS = system: SF-268 CNS
SNB-19 CNS = system: SNB-19 CNS
DLD-1 colon = system: DLD-1 colon
SNB-78 CNS = system: SNB-78 CNS
A549 NSCLC = system: A549 NSCLC
NCI-H23 lung = system: NCI-H23 lung
IGROV1 ovarian = system: IGROV1 ovarian
SF-295 CNS = system: SF-295 CNS
UACC-62 melanoma = system: UACC-62 melanoma
KM12 colon = system: KM12 colon
OVCAR-3 ovarian = system: OVCAR-3 ovarian
SK-MEL-28 melanoma = system: SK-MEL-28 melanoma
SK-MEL-2 melanoma = system: SK-MEL-2 melanoma
OVCAR-5 ovarian = system: OVCAR-5 ovarian
LOX IMVI melanoma = system: LOX IMVI melanoma
HOP-18 NSCLC = system: HOP-18 NSCLC
SW-620 colon = system: SW-620 colon
SNB-75 CNS = system: SNB-75 CNS
EKVX NSCLC = system: EKVX NSCLC
SN12C renal = system: SN12C renal
HOP-62 NSCLC = system: HOP-62 NSCLC
HCT-15 colon = system: HCT-15 colon
HT29 colon = system: HT29 colon
TK-10 renal = system: TK-10 renal
NCI-H460 lung = system: NCI-H460 lung
UACC-257 melanoma = system: UACC-257 melanoma
ACHN renal = system: ACHN renal
DMS 273 small cell lung = system: DMS 273 small cell lung
DMS 114 small cell lung = system: DMS 114 small cell lung
CAKI-1 renal = system: CAKI-1 renal
U251 CNS = system: U251 CNS
HOP-92 NSCLC = system: HOP-92 NSCLC
OVCAR-4 ovarian = system: OVCAR-4 ovarian
XF 498 CNS = system: XF 498 CNS
OVCAR-8 ovarian = system: OVCAR-8 ovarian
UO-31 renal = system: UO-31 renal
LXFL 529 NSCLC = system: LXFL 529 NSCLC
M19-MEL melanoma = system: M19-MEL melanoma
RPMI-8226 leukemia = system: RPMI-8226 leukemia
SF-539 CNS = system: SF-539 CNS
RXF 393 renal = system: RXF 393 renal
CCRF-CEM leukemia = system: CCRF-CEM leukemia
K-562 leukemia = system: K-562 leukemia
MOLT-4 leukemia = system: MOLT-4 leukemia
HL-60(TB) leukemia = system: HL-60(TB) leukemia
SK-MEL-5 melanoma = system: SK-MEL-5 melanoma

CCOc1ccccc1N1C(=O)C(=O)C(c2nc3ccccc3s2)C(=O)C1=O
TGI (COLO 205 colon): > 100 µM
TGI (A498 renal): 39 µM
TGI (KM20L2 colon): > 100 µM
TGI (SK-OV-3 ovarian): > 100 µM
TGI (NCI-H226 lung): > 100 µM
TGI (786-0 renal): 20.8 µM
TGI (HCT-116 colon): > 100 µM
TGI (M14 melanoma): > 100 µM
TGI (HCC-2998 colon): > 100 µM
TGI (MALME-3M melanoma): > 100 µM
TGI (SF-268 CNS): > 100 µM
TGI (SNB-19 CNS): > 100 µM
TGI (DLD-1 colon): > 100 µM
TGI (SNB-78 CNS): > 100 µM
TGI (A549 NSCLC): > 100 µM
TGI (NCI-H23 lung): > 100 µM
TGI (IGROV1 ovarian): > 100 µM
TGI (SF-295 CNS): > 100 µM
TGI (UACC-62 melanoma): > 100 µM
TGI (KM12 colon): > 100 µM
TGI (OVCAR-3 ovarian): 44.2 µM
TGI (SK-MEL-28 melanoma): > 100 µM
TGI (SK-MEL-2 melanoma): > 100 µM
TGI (OVCAR-5 ovarian): > 100 µM
TGI (LOX IMVI melanoma): > 100 µM
TGI (HOP-18 NSCLC): 69.8 µM
TGI (SW-620 colon): > 100 µM
TGI (SNB-75 CNS): > 100 µM
TGI (EKVX NSCLC): > 100 µM
TGI (SN12C renal): > 100 µM
TGI (HOP-62 NSCLC): > 100 µM
TGI (HCT-15 colon): > 100 µM
TGI (HT29 colon): > 100 µM
TGI (TK-10 renal): > 100 µM
TGI (NCI-H460 lung): > 100 µM
TGI (UACC-257 melanoma): > 100 µM
TGI (ACHN renal): 54 µM
TGI (DMS 273 small cell lung): > 100 µM
TGI (DMS 114 small cell lung): > 100 µM
TGI (CAKI-1 renal): > 100 µM
TGI (U251 CNS): > 100 µM
TGI (HOP-92 NSCLC): > 100 µM
TGI (OVCAR-4 ovarian): 17.8 µM
TGI (XF 498 CNS): > 100 µM
TGI (OVCAR-8 ovarian): > 100 µM
TGI (UO-31 renal): > 100 µM
TGI (LXFL 529 NSCLC): > 100 µM
TGI (M19-MEL melanoma): > 100 µM
TGI (RPMI-8226 leukemia): > 100 µM
TGI (SF-539 CNS): > 100 µM
TGI (RXF 393 renal): > 100 µM

[C-]#[O+].[C-]#[O+].[C-]#[O+].[C-]#[O+].[O-]C(c1ccccc1[PH+]1OC(C(F)(F)F)(C(F)(F)F)c2ccccc21)(C(F)(F)F)C(F)(F)F.[Re] (configuration not stated)
GI50 (COLO 205 colon): 2.32 µM
TGI (COLO 205 colon): 5.74 µM
GI50 (A498 renal): 2.5 µM
TGI (A498 renal): 8.19 µM
GI50 (KM20L2 colon): 2.2 µM
TGI (KM20L2 colon): 13.7 µM
GI50 (SK-OV-3 ovarian): 14.7 µM
TGI (SK-OV-3 ovarian): 30.2 µM
GI50 (786-0 renal): 4.26 µM
TGI (786-0 renal): 15.3 µM
GI50 (M14 melanoma): 1.99 µM
TGI (M14 melanoma): 4.01 µM
GI50 (HCC-2998 colon): 5.11 µM
TGI (HCC-2998 colon): 18.3 µM
GI50 (MALME-3M melanoma): 2.33 µM
TGI (MALME-3M melanoma): 5.07 µM
GI50 (CCRF-CEM leukemia): 2.39 µM
TGI (CCRF-CEM leukemia): 5.83 µM
GI50 (SF-268 CNS): 6.18 µM
TGI (SF-268 CNS): 23.5 µM
GI50 (SNB-19 CNS): 11.5 µM
TGI (SNB-19 CNS): 33.5 µM
GI50 (DLD-1 colon): 5.1 µM
TGI (DLD-1 colon): 21.1 µM
GI50 (SNB-78 CNS): 3.7 µM
TGI (SNB-78 CNS): 19.5 µM
GI50 (A549 NSCLC): 4.56 µM
TGI (A549 NSCLC): 19.2 µM
GI50 (K-562 leukemia): 2.69 µM
TGI (K-562 leukemia): 11.1 µM
GI50 (NCI-H23 lung): 2.36 µM
TGI (NCI-H23 lung): 5.25 µM
GI50 (IGROV1 ovarian): 3.46 µM
TGI (IGROV1 ovarian): 14.8 µM
GI50 (MOLT-4 leukemia): 2.5 µM
TGI (MOLT-4 leukemia): 6.39 µM
GI50 (SF-295 CNS): 4.97 µM
TGI (SF-295 CNS): 18.3 µM
GI50 (UACC-62 melanoma): 2.12 µM
TGI (UACC-62 melanoma): 4.92 µM
GI50 (KM12 colon): 3.9 µM
TGI (KM12 colon): 12.5 µM
GI50 (HL-60(TB) leukemia): 2.81 µM
TGI (HL-60(TB) leukemia): 11.4 µM
GI50 (OVCAR-3 ovarian): 2.77 µM
TGI (OVCAR-3 ovarian): 7.58 µM
GI50 (SK-MEL-28 melanoma): 2.56 µM
TGI (SK-MEL-28 melanoma): 6.8 µM
GI50 (SK-MEL-2 melanoma): 4.88 µM
TGI (SK-MEL-2 melanoma): 18.2 µM
GI50 (OVCAR-5 ovarian): 5 µM
TGI (OVCAR-5 ovarian): 18.6 µM
GI50 (LOX IMVI melanoma): 2.59 µM
TGI (LOX IMVI melanoma): 6.2 µM
GI50 (HOP-18 NSCLC): 7.89 µM
TGI (HOP-18 NSCLC): 21.1 µM
GI50 (SW-620 colon): 3.87 µM
TGI (SW-620 colon): 13.5 µM
GI50 (SNB-75 CNS): 4.65 µM
TGI (SNB-75 CNS): 15.6 µM
GI50 (EKVX NSCLC): 7.51 µM
TGI (EKVX NSCLC): 25.4 µM
GI50 (SN12C renal): 3.63 µM
TGI (SN12C renal): 13.4 µM
GI50 (HOP-62 NSCLC): 7.54 µM
TGI (HOP-62 NSCLC): 24 µM
GI50 (HCT-15 colon): 5.72 µM
TGI (HCT-15 colon): 20.6 µM
GI50 (HT29 colon): 3.6 µM
TGI (HT29 colon): 12.2 µM
GI50 (TK-10 renal): 7.26 µM
TGI (TK-10 renal): 21.7 µM
GI50 (NCI-H460 lung): 2.92 µM
TGI (NCI-H460 lung): 8.97 µM
GI50 (UACC-257 melanoma): 2.26 µM
TGI (UACC-257 melanoma): 4.28 µM
GI50 (ACHN renal): 3.75 µM
TGI (ACHN renal): 12.9 µM
GI50 (DMS 273 small cell lung): 2.93 µM
TGI (DMS 273 small cell lung): 9.78 µM
GI50 (DMS 114 small cell lung): 2.78 µM
TGI (DMS 114 small cell lung): 8.82 µM
GI50 (CAKI-1 renal): 5.45 µM
TGI (CAKI-1 renal): 20.8 µM
GI50 (U251 CNS): 3.05 µM
TGI (U251 CNS): 14.1 µM
GI50 (OVCAR-4 ovarian): 2.88 µM
TGI (OVCAR-4 ovarian): 8.53 µM
GI50 (XF 498 CNS): 2.96 µM
TGI (XF 498 CNS): 10.3 µM
GI50 (OVCAR-8 ovarian): 3.65 µM
TGI (OVCAR-8 ovarian): 15.6 µM
GI50 (SK-MEL-5 melanoma): 6.33 µM
TGI (SK-MEL-5 melanoma): 20.6 µM
GI50 (UO-31 renal): 2.58 µM
TGI (UO-31 renal): 7.02 µM
GI50 (LXFL 529 NSCLC): 2.01 µM
TGI (LXFL 529 NSCLC): 4.26 µM
GI50 (M19-MEL melanoma): 3.59 µM
TGI (M19-MEL melanoma): 14.4 µM
GI50 (RPMI-8226 leukemia): 2.89 µM
TGI (RPMI-8226 leukemia): 12.5 µM
GI50 (SF-539 CNS): 2.85 µM
TGI (SF-539 CNS): 8.68 µM
GI50 (RXF 393 renal): 1.9 µM
TGI (RXF 393 renal): 4.04 µM
